Data published in the METLIN SMRT retention time set (Domingo-Almenara et al. 2019).

assay: gradient 5% acetonitrile 3 min, to 50% in 2 min, to 85% in 15 min, held 3 min, 100 µL/min; details: column: Zorbax Extend-C18 2.1 x 50 mm; eluents: water / acetonitrile, 0.1% formic acid
How it was run: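 The mobile phases were water and acetonitrile, each with 0.1% formic acid, pumped at 100 μL/min through a Zorbax Extend-C18 column (2.1 × 50 mm, 1.8 μm). Pure standards were injected as mixtures of ~100 molecules and detected by a quadrupole time-of-flight mass spectrometer in positive and negative ionization mode. Retention time came from computationally picked adduct peaks, each inspected by hand.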

Point of comparison: `COc1cccc(-c2ccc3nc(N4CCC(C(N)=O)CC4)sc3n2)c1`, RP-LC retention time 745 s. Against it:
- Cc1ccc(CNC(=O)C2CCCN(S(=O)(=O)c3c[nH]c(C(=O)N4CCCC4)c3)C2)cc1 (centres undefined) — higher, 762 s
- COCCNC(=O)NCc1ccc2c(c1)N(C(=O)c1ccc(C)cc1)CC2 — lower, 723 s
- O=C(C1CC1)N1CCc2c([nH]c3ccccc23)C1c1ccc(F)cc1 (centres undefined) — higher, 1050 s
- Cc1cc(C(N)=O)c2cc(Cl)ccc2n1 — lower, 592 s
- Cn1c(=O)n(C)c2cc(S(=O)(=O)C3CCCCC3)c(NC(=O)C3CC3)cc21 — higher, 814 s
- Cc1cc2c(cc1S(=O)(=O)N1CCCC1C(=O)N1CCc3ccccc31)OC(C)C(=O)N2 (centres undefined) — higher, 825 s
- COc1ccc(Cl)cc1NC(=O)N1CCCC(C)(C(=O)NCc2ccccc2C)C1 (centres undefined) — higher, 1070 s
- COCCn1cc(C(=O)Nc2cccc(F)c2)c2nn(-c3ccccc3)c(=O)c-2c1 — higher, 970 s
- CC(=O)NCC1(O)CCCC(C)C1 (centres undefined) — lower, 663 s
- CC(C)C(=O)N1CCCc2ccc(NC(=O)c3ccc(F)c(F)c3)cc21 — higher, 871 s
- COc1ccc(-c2cn3c(CCC(=O)Nc4ccc5c(c4)OCCO5)csc3n2)cc1 — lower, 678 s
- O=C(CN1CCN(Cc2ccc(F)cc2)C(=O)C1=O)N1CCN(c2cccc(Cl)c2)CC1 — higher, 829 s
- Cc1nnc(NC(=O)CSc2nnc(C3COc4ccccc4O3)o2)s1 (centres undefined) — lower, 699 s
- CCc1ccc(C(=O)NC2CCN(c3cc(-c4cccs4)[nH]n3)C2)cc1 (centres undefined) — lower, 730 s
- CCOc1ccc(CC(=O)N2CCCn3nc(-c4cccc(C)c4)cc3C2)cc1 — higher, 968 s
- CCc1cc(C(=O)Nc2cccc(C)c2)nc2ccnn12 — higher, 995 s
- CCOC(=O)C1CCN(C(=O)C2COC3(CCCCC3)N2C(=O)c2ccccc2)CC1 (centres undefined) — higher, 808 s
- CN1C(=O)c2ccccc2Oc2ccc(C(=O)N3CCCCCC3)cc21 — higher, 846 s
- COCc1cc(=O)n(CC(=O)Nc2ccc(F)c(Cl)c2)c(N2CCOCC2)n1 — higher, 917 s
- COc1ccc(-c2nnc(-c3ccccc3)o2)cc1S(=O)(=O)N1CCC(C(=O)O)CC1 — higher, 774 s
- CCCn1nc(CNC(=O)c2ccc(C#N)cc2)c2ccccc21 — higher, 844 s
- O=C1CCCCC(Cc2cccnc2)(C(=O)NCc2ccc3c(c2)OCO3)N1 (centres undefined) — lower, 591 s
- CC(C)c1cc(N2CCN(C(=O)c3ccc(N(C)C)cc3)CC2)nc2nncn12 — lower, 606 s
- Cc1ccccc1Cn1c(C)c(CNCCc2ccco2)c(C(=O)O)c1C — lower, 738 s
- O=C(Cn1cnc2nc(N3CCC(C(=O)NC4CC4)CC3)sc2c1=O)Nc1ccc(F)cc1 — lower, 655 s
- CCOC(=O)c1c(C)oc2nc(C)nc(NCCc3ccc(Cl)cc3)c12 — higher, 1380 s
- CCc1cc(=O)n(CC(=O)Nc2ccccc2C)c(N)n1 — lower, 639 s
- O=C(CN1CCC(c2nc(-c3cccs3)no2)CC1)NCc1ccccc1 — lower, 672 s
- Cc1cccc(-c2nc(Cn3nnc(-c4nc(-c5ccc(Cl)cc5)no4)c3C)c(C)o2)c1 — higher, 1320 s
- O=C(Nc1ccc(F)c(F)c1)c1cccn1Cc1noc(C2CC2)n1 — higher, 966 s
- CCCNC(=O)N(C1CCOCC1)C1CCN(C(=O)c2ccsc2)CC1 — lower, 680 s
- Cn1c(=O)c2cc(C(=O)Nc3ccc(F)c(Cl)c3)sc2n(C)c1=O — higher, 847 s
- Cc1ccc(-c2cn3ccn(-c4ccc(F)cc4)c(=O)c3n2)cc1C — higher, 901 s
- Cc1ccc(Cc2nc(C3CC(=O)N(c4ccc(Cl)cc4)C3)no2)cc1 (centres undefined) — higher, 1060 s
- CCC(=O)Nc1ccc(OCc2cc(C(=O)NC3CCC(C)CC3)no2)cc1 (centres undefined) — lower, 601 s
- CC1CCN(CCNC(=O)c2cccc3c2SCCC3=O)CC1 — lower, 588 s
- CCCn1cc(S(=O)(=O)Nc2cc(OC)cc(OC)c2)c2cccnc21 — higher, 860 s
- Cc1ccc2c(CN3CCN(c4ccccn4)CC3)cc(=O)oc2c1 — lower, 634 s
- c1ccc(-n2nnc(-c3noc(-c4ccccn4)n3)c2-c2ccncc2)cc1 — lower, 718 s
- COc1ccc(N2CCN(c3cc(SCC(=O)Nc4ccccc4OC)ncn3)CC2)cc1 — higher, 1040 s
- CCCn1ccc2sc(C)c(C(=O)NCc3cccc(C)c3)c2c1=O — higher, 948 s
- CN(C)c1cccc(-c2nc(C3CC(=O)N(c4ccc(Cl)cc4)C3)no2)c1 (centres undefined) — higher, 1110 s
- O=C(CC1CCCC1)N1CCCC(c2nc(-c3ccncc3)n[nH]2)C1 (centres undefined) — lower, 577 s
- COc1ccc(CN2C=C(C(=O)OCc3cc(=O)n4ccccc4n3)C(C)=NS2(=O)=O)cc1 — higher, 1130 s
- O=C1CCC2(CNC(=O)c3n[nH]c(=O)c4ccccc34)CCCC=C2N1 (centres undefined) — lower, 634 s
- CCOCCCNC(=O)c1ccc2nc(CCc3ccc(NC(C)=O)cc3)[nH]c2c1 — lower, 589 s
- COc1ccc2[nH]c(=O)c(CCC(=O)NCc3nc4ccccc4n3C)cc2c1 — lower, 577 s
- CCOC(=O)C1=C(CN2CCC(C(=O)OCC)CC2)NC(=O)NC1c1ccc(C)cc1 (centres undefined) — lower, 665 s
- CCc1cc(=O)n(CC(=O)Nc2ccc(C(C)C)cc2)c(N2CCOCC2)n1 — higher, 895 s
- Cc1noc2nc(C)n(CC(=O)NCc3ccc(F)cc3)c(=O)c12 — lower, 735 s
- CCOC(=O)c1c(S(=O)(=O)N2CCC(C(=O)Nc3ccc(Cl)cc3)CC2)c(C)n(C)c1C — higher, 913 s
- CC(CCc1ccccc1)NC(=O)C1CCCN(c2nccnc2Oc2ccccc2)C1 (centres undefined) — higher, 1100 s
- CN(C)C(=O)[C@@]12CCCC[C@H]1N(CCc1ccccc1)C(=O)CC2 — lower, 725 s
- CC(=O)Nc1ccc(OC(=O)c2ccccc2OC(C)=O)cc1 — higher, 853 s
- CC(C)(C)c1csc(-c2csc(S(=O)(=O)N3CCN(c4ccccn4)CC3)c2)n1 — higher, 974 s
- COc1ccc(C)cc1Nc1nc(C(=O)Nc2cccnc2)cs1 — lower, 637 s
- Cc1ccc2c(c1)C(C)(C)C(=O)N2CC(=O)N1CCCCC1 — higher, 860 s
- Cc1cc(C)cc(NC(=O)CN2C(=O)CSc3ccc(C(=O)N(C)C)cc32)c1 — higher, 906 s
- Cc1cccc(NC(=O)Nc2cnn(-c3ncncc3N3CCOCC3)c2)c1C — lower, 612 s
- CCN(CC)C(=O)c1ccc2c(c1)N(CC(=O)N(C)Cc1ccccc1)C(=O)CS2 — higher, 787 s
- CN(CC(=O)Nc1nnc(SCc2ccc(Cl)cc2Cl)s1)S(C)(=O)=O — higher, 874 s
- COc1ccc(OC)c(NC(=O)N2C[C@@H](F)C[C@H]2C(=O)N2CCCCC2)c1 — lower, 720 s
- Cc1cccc(NS(=O)(=O)c2c[nH]c3ncccc23)c1 — lower, 726 s
- CCS(=O)(=O)c1ccc(-c2ccc(NS(C)(=O)=O)cc2)nn1 — lower, 643 s
- Cn1cnc(S(=O)(=O)N2CC[C@@H]3COCCN(Cc4ccccc4)[C@@H]3C2)c1 — lower, 586 s
- CCC[C@@H]1C[C@@H](C(=O)N[C@@H]([C@H]2O[C@H](SC)[C@H](O)[C@@H](O)[C@@H]2O)[C@@H](C)O)N(C)C1 — lower, 595 s
- COc1ccc(C(=O)N2CCC3(CC2)NC(=O)c2cc(C)ccc2N3C)c(OC)c1 — higher, 754 s
- CCC(C)(C)NS(=O)(=O)c1cc(-c2nc(C(C)(C)C)cs2)cs1 — higher, 1300 s
- CCCn1c(=O)sc2cc(S(=O)(=O)N3CCC(C(=O)N4CCOCC4)CC3)ccc21 — higher, 770 s
- O=C(c1ccco1)N1CCN(c2ncnc3sc(-c4ccccc4)cc23)CC1 — higher, 840 s
- COc1cccc(-c2cc(C(=O)N3CC(c4nc(-c5cccs5)no4)C3)[nH]n2)c1 — higher, 798 s
- Cc1cc(C(=O)N2C[C@@H](C)[C@H](c3nc(-c4ccncc4)no3)C2)n[nH]1 — lower, 619 s
- N#Cc1cccc(Cn2c(-c3nc(-c4ccccc4)no3)cccc2=O)c1 — lower, 688 s
- O=C(Cn1nc2c3cc(F)ccc3ncn2c1=O)Nc1ccc(Cl)cc1 — lower, 744 s
- Cc1c(Cl)cccc1-c1ccc(CNCCc2ccc(S(N)(=O)=O)cc2)o1 — lower, 704 s
- Cc1cc(OCC(=O)NCc2ccco2)nc(N2CCC(C)CC2)n1 — lower, 650 s
- CCc1cc(N2CCN(C(=O)c3ccc(Br)cc3)CC2)nc2nnc(C)n12 — lower, 640 s
- Cc1[nH]c2ccccc2c1C(=O)C(=O)NCc1ccccn1 — lower, 605 s
- O=C(Nc1ccc(F)cc1F)N1CC(Cc2nc(-c3cnccn3)no2)C1 — lower, 690 s
- COC(=O)c1cc(C)nc2c1c(=O)n(Cc1cccc(F)c1)c(=O)n2C — higher, 973 s
- Cc1ccnc(NC(c2cccs2)c2ccc3cccnc3c2O)c1 (centres undefined) — lower, 676 s
- Cc1cnc(C2CN(Cc3cccnc3)C2)n1Cc1ccccc1 — lower, 536 s
- CCn1c(=O)c(N2CCN(C(=O)Nc3cccc(Br)c3)CC2)nc2ccccc21 — higher, 1030 s
- CCN1C(=O)c2cccnc2Sc2cc(NC(=O)c3cccc(Cl)c3)ccc21 — higher, 912 s
- COc1ccc(OC)c(CNC(=O)Cc2nnc(-c3cccs3)o2)c1 — lower, 700 s
- CO[C@H]1CN(C2CCN(S(=O)(=O)Cc3ccccc3)CC2)[C@H]1c1ccncc1 — lower, 612 s
- O=C(NCc1nc(-c2ccccc2)no1)C1CCN(Cc2nc3ccccc3[nH]2)CC1 — lower, 581 s
- Cc1ccc(-n2nc3c(N4CCCC(C(=O)N5CCc6ccccc65)C4)nnc(C)c3c2C)cc1 (centres undefined) — higher, 830 s
